Assay results published in the NIST ThermoML archive (doi:10.1016/j.jct.2015.06.009).
± gives the expanded uncertainty stated by the source.

Assay: xn = mol fraction of the nth substance listed
Details: 101 kPa, Liquid; for speed of sound: Frequency=3 MHz, Sing-around technique in a fixed-path interferometer; for mass density: Vibrating tube method

COC(C)(C)C [2-methoxy-2-methylpropane] + CCCCO
Details	mass density, 298.15 K [kg/m3]	mass density, 308.15 K [kg/m3]	mass density, 318.15 K [kg/m3]	mass density, 328.15 K [kg/m3]	speed of sound, 298.15 K [m/s]	speed of sound, 308.15 K [m/s]	speed of sound, 318.15 K [m/s]	speed of sound, 328.15 K [m/s]
x1 = 0.03132	803.61 ± 0.15	795.86 ± 0.15	788.07 ± 0.15	780.19 ± 0.15	1233.9 ± 1.2	1200 ± 1.2	1166.3 ± 1.2	1132.8 ± 1.2
x1 = 0.06569	801.27 ± 0.15	793.42 ± 0.15	785.54 ± 0.15	777.56 ± 0.15	1227 ± 1.2	1192.7 ± 1.2	1158.4 ± 1.2	1124.4 ± 1.2
x1 = 0.1315	796.77 ± 0.15	788.76 ± 0.15	780.66 ± 0.15	772.49 ± 0.15	1213.6 ± 1.2	1178.4 ± 1.2	1143 ± 1.2	1108.2 ± 1.1
x1 = 0.193	792.46 ± 0.15	784.25 ± 0.15	775.99 ± 0.15	767.64 ± 0.15	1200.7 ± 1.2	1164.5 ± 1.2	1128.5 ± 1.2	1092.7 ± 1.1
x1 = 0.2647	787.54 ± 0.15	779.11 ± 0.15	770.65 ± 0.15	762.09 ± 0.16	1185.7 ± 1.2	1148.6 ± 1.2	1111.7 ± 1.1	1075 ± 1.1
x1 = 0.3401	782.26 ± 0.15	773.61 ± 0.15	764.93 ± 0.15	756.13 ± 0.16	1170.3 ± 1.2	1131.9 ± 1.1	1094 ± 1.1	1056.4 ± 1.1
x1 = 0.3916	778.65 ± 0.15	769.83 ± 0.15	761.01 ± 0.16	752.07 ± 0.16	1159.3 ± 1.2	1120.5 ± 1.1	1082 ± 1.1	1043.8 ± 1.1
x1 = 0.4652	773.54 ± 0.15	764.48 ± 0.15	755.43 ± 0.16	746.28 ± 0.16	1144.3 ± 1.2	1104.6 ± 1.1	1065.2 ± 1.1	1026.3 ± 1.1
x1 = 0.5451	768.04 ± 0.15	758.63 ± 0.16	749.33 ± 0.16	739.91 ± 0.16	1128.3 ± 1.1	1087.4 ± 1.1	1047.2 ± 1.1	1007 ± 1.1
x1 = 0.6001	764.05 ± 0.15	754.64 ± 0.16	745.19 ± 0.16	735.66 ± 0.16	1117.3 ± 1.1	1076.1 ± 1.1	1034.9 ± 1.1	995.48 ± 1.1
x1 = 0.6708	759.06 ± 0.16	749.44 ± 0.16	739.77 ± 0.16	729.95 ± 0.16	1103.5 ± 1.1	1061.5 ± 1.1	1019.5 ± 1.1	978.48 ± 1.1
x1 = 0.7347	754.56 ± 0.16	744.74 ± 0.16	734.85 ± 0.16	724.9 ± 0.16	1091.3 ± 1.1	1048.4 ± 1.1	1005.7 ± 1.1	963.43 ± 1.1
x1 = 0.7953	750.27 ± 0.16	740.28 ± 0.16	730.2 ± 0.16	–	1079.5 ± 1.1	1036 ± 1.1	992.74 ± 1.1	–
x1 = 0.8755	744.44 ± 0.16	734.2 ± 0.16	723.89 ± 0.16	713.5 ± 0.17	1063.6 ± 1.1	1019 ± 1.1	974.75 ± 1.1	932.29 ± 1.1
x1 = 0.9367	739.95 ± 0.16	729.44 ± 0.16	719.05 ± 0.17	708.44 ± 0.17	1050.6 ± 1.1	1005.4 ± 1.1	960.39 ± 1.1	917.28 ± 1.1
x1 = 1	735.22 ± 0.16	724.64 ± 0.16	714.01 ± 0.17	703.38 ± 0.17	1036.4 ± 1.1	990.57 ± 1.1	944.94 ± 1.1	–
